Laboratory results taken from patent EP0055716B1, “AMPLIFIED ANTIBIOTIC AND ANTITUMOR AGENTS” (priority 1980, dated 1982).

Experiments:
[1] = test system: Walker 256 carcinoma Sarcoma; assay: Survival of rats with Walker 256 ascites tumour, amide with or without amplifier; assay type: in vivo, Sprague Dawley rats; conditions: for T/C (1): control saline vehicle only
Procedure: This was given two 2-minute treatments with Boyle's fluid (9 vols. 0.83% NH4CI, 1 vol. Tris buffer, pH7.2). The cell suspension was counted on a haemocytometer using Turk's fluid and then diluted with Eagle's medium to 10^7 live cells per ml, and then 0.1 ml was injected intraperitoneally. Bacto-fluid Thiolglycollate Medium was used to test for contamination. Solutions of the phleomycins, bleomycins or tallysomycins were made up in phosphate-buffered saline at pH7.2 in daily doses at the commencement of each 5 day injection period and were kept frozen until the commencement of each day's injections. The injections were given at 9 a.m. and 4 p.m. […] Test groups usually comprised 7 or 8 animals.

Ehrlich's Ascites Tumor = assay: Survival of mice with Ehrlich's ascites tumor, amide with or without amplifier; assay type: in vivo; conditions: for T/C (1): control saline vehicle only
Mouse Sarcoma 180 = assay: Survival of mice with Sarcoma 180, amide with or without amplifier; assay type: in vivo; conditions: i.p.; for T/C (1): control saline vehicle only
[2] = Exp 1C, amplifier alone 675 uKD
[3] = Exp 1E, amplifier alone 675 uKD
[4] = Exp 2C, i.p., amplifier alone 675 uKD
[5] = Exp 2C, i.p., amplifier alone 2025 uKD
[6] = Exp 3B, amplifier alone 675 uKD
[7] = Exp 3C, amplifier alone 675 uKD
[8] = Exp 1A, amplifier alone 10.61 uKD
[9] = Exp 1A, amplifier alone 106.1 uKD
[10] = Exp 1B, amplifier alone 10.61 uKD
[11] = Exp 1B, amplifier alone 1061 uKD
[12] = Exp 1D, amplifier alone 10.61 uKD in minipumps
[13] = Exp 1D, amplifier alone 106.1 uKD in minipumps
[14] = Exp 2A, i.p., amplifier alone 10.61 uKD
[15] = Exp 2A, i.p., amplifier alone 106.1 uKD
[16] = Exp 2B, amplifier alone 10.61 uKD in drinking water
[17] = Exp 2B, amplifier alone 106.1 uKD in drinking water
[18] = Exp 2B, amplifier alone 1061 uKD in drinking water
[19] = Exp 3A, amplifier alone 1942 uKD

Which M.S.T. [1, 2] does the source give for Dimethylthiocyanine here?
Its M.S.T. is 9.0 days.

What about the “T/C (1)” value [1, 2] of the same molecule?
Its value is 112.

What about the M.S.T. [1, 3] of the same molecule?
The M.S.T. was 6.0 days.

And the “T/C (1)” value [1, 3]?
Its value is 100.

And the M.S.T. (Ehrlich's Ascites Tumor; [4])?
The M.S.T. was 20.0 days.

What about the “T/C (1)” value (Ehrlich's Ascites Tumor; [4]) of the same molecule?
The value was 111.

And the M.S.T. (Ehrlich's Ascites Tumor; [5])?
Its M.S.T. is 20.0 days.

And the “T/C (1)” value (Ehrlich's Ascites Tumor; [5])?
The value was 111.

What about the M.S.T. (Mouse Sarcoma 180; [6]) of the same molecule?
The M.S.T. was 17.0 days.

What about the “T/C (1)” value (Mouse Sarcoma 180; [6]) of the same molecule?
The value was 100.

What about the M.S.T. (Mouse Sarcoma 180; [7]) of the same molecule?
The M.S.T. was 17.0 days.

What about the “T/C (1)” value (Mouse Sarcoma 180; [7]) of the same molecule?
The value was 100.

For `Cn1c(=O)c2c(ncn2C)n(C)c1=O` [Caffeine, 1, 3, 7 trimethyl xanthene], which M.S.T. [1, 8] is on record?
Its M.S.T. is 8.0 days.

What about the “T/C (1)” value [1, 8] of the same molecule?
Its value is 89.

What about the M.S.T. [1, 9] of the same molecule?
Its M.S.T. is 8.0 days.

And the “T/C (1)” value [1, 9]?
Its value is 89.

What about the M.S.T. [1, 10] of the same molecule?
Its M.S.T. is 7.0 days.

And the “T/C (1)” value [1, 10]?
Its value is 93.

What about the M.S.T. [1, 11] of the same molecule?
The M.S.T. was 8.0 days.

And the “T/C (1)” value [1, 11]?
The value was 107.

What about the M.S.T. [1, 12] of the same molecule?
The M.S.T. was 10.0 days.

What about the “T/C (1)” value [1, 12] of the same molecule?
The value was 95.

And the M.S.T. [1, 13]?
The M.S.T. was 10.0 days.

What about the “T/C (1)” value [1, 13] of the same molecule?
Its value is 95.

What about the M.S.T. (Ehrlich's Ascites Tumor; [14]) of the same molecule?
Its M.S.T. is 21.0 days.

And the “T/C (1)” value (Ehrlich's Ascites Tumor; [14])?
The value was 93.

And the M.S.T. (Ehrlich's Ascites Tumor; [15])?
Its M.S.T. is 21.0 days.

What about the “T/C (1)” value (Ehrlich's Ascites Tumor; [15]) of the same molecule?
The value was 93.

What about the M.S.T. (Ehrlich's Ascites Tumor; [16]) of the same molecule?
The M.S.T. was 22.0 days.

What about the “T/C (1)” value (Ehrlich's Ascites Tumor; [16]) of the same molecule?
The value was 119.

What about the M.S.T. (Ehrlich's Ascites Tumor; [17]) of the same molecule?
Its M.S.T. is 21.0 days.

What about the “T/C (1)” value (Ehrlich's Ascites Tumor; [17]) of the same molecule?
Its value is 113.

And the M.S.T. (Ehrlich's Ascites Tumor; [18])?
The M.S.T. was 20.0 days.

What about the “T/C (1)” value (Ehrlich's Ascites Tumor; [18]) of the same molecule?
The value was 108.

And the M.S.T. (Mouse Sarcoma 180; [19])?
The M.S.T. was 17.0 days.

What about the “T/C (1)” value (Mouse Sarcoma 180; [19]) of the same molecule?
The value was 106.
